In assay [1] the test system is platelet aggregation in platelet-rich plasma (PRP). As to the kind of experiment: Platelet aggregation in human platelet-rich plasma (aggregometer, light transmittance). The format is cell-based. To be noted: for ability to counteract platelet aggregation by arachidonic acid: aggregation induced by arachidonic acid, human PRP. On the procedure:
Platelet aggregation experiments were performed on platelet-rich plasma (PRP) prepared from blood of healthy human subjects, who had not taken cyclooxygenase inhibitors (acetylsalicylic acid, non-steroidal anti-inflammatory agents) for at least two weeks. Blood was collected in test tubes containing a 3.2% sodium citrate solution ( 1/10 of blood volume) and immediately centrifuged at 150×g for 15 minutes. Samples of PRP were further centrifuged at 12,000×g in order to obtain platelet-poor plasma (PPP), used for calibration of light transmittance of the double-channel aggregometer, fixing the transmittance of PRP as 10% and that of PPP as 90%. Platelet aggregation in PRP of each subject was tested measuring the percent increase in transmittance under the addition of increasing amounts of sodium arachidonate, in concentrations in the range from 300 to 900 μM, or of collagen, in concentrations in the range from 0.5 to 2.5 μg/ml, or of U-46619, in concentrations in the range from 0.2 to 1.6 μM. (U-46619, i.e., 9,11-dideoxy-11α, 9α-epoxymethano-prostaglandin F2α is an active synthetic analogue of thromboxane A2 and it is chemically stable, at difference from the natural compound; it is therefore used as a substitute in pharmacological experiments). In this way the threshold concentration, i.e., the concentration inducing a submaximal irreversible aggregation was assessed in each subject with the three agents.
PRP samples of subjects not responding to the maximal concentrations were discarded.

In assay [2] the test system is transcellular synthesis of prostacyclin. The assay is described as follows: Transcellular prostacyclin synthesis: human PRP layered on acetylsalicylic acid-pretreated cultured bovine endothelial cells (6-keto-prostaglandin F1α by radioimmunoassay). It counts as cell-based. As for the experimental part: The effects on the transcellular synthesis of prostacyclin from endoperoxides generated in platelets were assessed by layering platelet rich plasma (PRP), obtained from healthy human subjects as described above, on cultured bovine endothelial cells (5×10^5 cells/well). The endothelial cells were pretreated with acetylsalicylic acid (10^−4 M) in order to inhibit the direct synthesis of endoperoxides, and washed twice with Dulbecco's phosphate buffered saline. Then to individual samples of endothelial cells there were added at 37° C. while shaking on an oscillating platform, 0.5 ml of PRP samples pretreated with the test compounds in various concentrations, ranging from […] to 10^−3 M. Collagen (0.5 μg/ml) was then added to each sample. After 2 minutes of contact at 37° C., PRP was removed and centrifuged at 12,000×g, and the supernatant was frozen and kept at −20° C. for the determination of 6-keto-prostaglandin F1α by radioimmunoassay.
6-Keto-prostaglandin F1α is a stable metabolite into which prostacyclin is rapidly converted.

A further assay deals with thromboxane synthesis. As to the kind of experiment: Thromboxane synthesis in clotting blood (serum TxB2 by radioimmunoassay). The format is cell-based. The settings on record: human blood clotted 60 min at 37° C. On the procedure:
Test compounds were added in a series of concentrations ranging from 10^−7 M to 10^−3 M to samples of blood from healthy human subjects, who had not taken cyclooxygenase inhibitors (acetylsalicylic acid, non-steroidal anti-inflammatory agents) for at least two weeks. The blood samples were allowed to clot for 60 min in a bath at 37° C., and then centrifuged at 2500×g for 10 min. The serum was separated and kept frozen at −20° C. for the determination of TxB2 by radio immunoassay. TxB2 is the stable metabolite into which thromboxane A2 is rapidly converted.

Another assay has as its system rabbit aortae. As to the kind of experiment: Vascular relaxation of contracted aortic rings in vitro. The settings on record: at a concentration of 10^−4 M; contraction induced with norepinephrine (10^−6 M). On the procedure: The ability to induce vascular relaxation by acting as a donor of nitric oxide was tested in vitro on rabbit aortae. Rings of aortae were suspended in a Krebs-Henseleit solution at 37° C., submitted to a 1 g tension and connected to a force transducer.

Molecules are shown by their SMILES.

Regarding `O=C(O)Cc1ccc(CCNS(=O)(=O)c2ccc(Cl)cc2)cc1` [daltroban, p-[2-(p-chlorobenzenesulfonamido)ethyl]phenylacetic], the “ability to counteract the aggregation by U-46619” value in assay [1] (aggregation induced by U-46619, human PRP) is “shared only by daltroban”. Further, in assay [1], the “ability to counteract platelet aggregation by arachidonic acid” value (“ability … by arachidonic acid” for short) was “shared”. Besides, the “stimulation of the synthesis of prostacyclin” value in assay [2] (PRP on acetylsalicylic acid-treated bovine endothelial cells) is “did not stimulate the synthesis of prostacyclin”.
Take `CC(=O)Oc1ccccc1C(=O)O` [acetylsalicylic acid]: in assay [1], the “ability … by arachidonic acid” value is “shared”. Moreover, the “effect on thromboxane synthesis” value in the assay on thromboxane synthesis was “at difference from acetylsalicylic acid and ozagrel”.
Turning to `COc1ccc(C(=O)N[C@H]2CC[C@H](O[N+](=O)[O-])CC2)cc1C(=O)NCc1cccnc1` [4-Methoxy-N^1-(4-trans-nitrooxycyclohexyl)-N^3-(3-pyridinylmethyl)-1,3-benzenedicarboxamide], the “level of prostacyclin metabolite relative to the amount produced in basal conditions by endothelial cells not submitted to cyclooxygenase inhibition” value in assay [2] (acetylsalicylic acid-treated endothelial cells, collagen 0.5 μg/ml) is recorded as 8-16 times. Further, the “production of the prostacyclin metabolite (6-keto-prostaglandin F1α), level reached” value in assay [2] (acetylsalicylic acid-treated endothelial cells, collagen 0.5 μg/ml, 2 minutes at 37° C.) is 800-1600 μpg/ml. Further, the “concentration from which production of the prostacyclin metabolite was markedly increased” value in assay [2] (collagen 0.5 μg/ml, 2 minutes at 37° C., 6-keto-prostaglandin F1α) was ≥ 10^−6 M. The “relaxation of the aortic ring” value in the assay with rabbit aortae is reported as “complete relaxation”.
As for `O=C(O)/C=C/c1ccc(Cn2ccnc2)cc1` [ozagrel, (E)-3-[4-(1H-imidazol-1-ylmethyl)-phenyl]-2-propenoic acid], the “ability … by arachidonic acid” value in assay [1] is “shared”. Further, the “effect on thromboxane synthesis” value in the assay with thromboxane synthesis was “at difference from acetylsalicylic acid and ozagrel”.

The record behind these values is patent publication US6525078B1, “Compound for the treatment of atherosclerotic-thrombotic pathological conditions” (priority 2002, dated 2003).
